SMILES strings stand for the structures. Calls of active or inactive are those of the source. The rule behind the calls is not given here.

This assay has as its target T1, Prolyl endopeptidase (Homo sapiens) (UniProt P48147).
T1 sequence (whole entry): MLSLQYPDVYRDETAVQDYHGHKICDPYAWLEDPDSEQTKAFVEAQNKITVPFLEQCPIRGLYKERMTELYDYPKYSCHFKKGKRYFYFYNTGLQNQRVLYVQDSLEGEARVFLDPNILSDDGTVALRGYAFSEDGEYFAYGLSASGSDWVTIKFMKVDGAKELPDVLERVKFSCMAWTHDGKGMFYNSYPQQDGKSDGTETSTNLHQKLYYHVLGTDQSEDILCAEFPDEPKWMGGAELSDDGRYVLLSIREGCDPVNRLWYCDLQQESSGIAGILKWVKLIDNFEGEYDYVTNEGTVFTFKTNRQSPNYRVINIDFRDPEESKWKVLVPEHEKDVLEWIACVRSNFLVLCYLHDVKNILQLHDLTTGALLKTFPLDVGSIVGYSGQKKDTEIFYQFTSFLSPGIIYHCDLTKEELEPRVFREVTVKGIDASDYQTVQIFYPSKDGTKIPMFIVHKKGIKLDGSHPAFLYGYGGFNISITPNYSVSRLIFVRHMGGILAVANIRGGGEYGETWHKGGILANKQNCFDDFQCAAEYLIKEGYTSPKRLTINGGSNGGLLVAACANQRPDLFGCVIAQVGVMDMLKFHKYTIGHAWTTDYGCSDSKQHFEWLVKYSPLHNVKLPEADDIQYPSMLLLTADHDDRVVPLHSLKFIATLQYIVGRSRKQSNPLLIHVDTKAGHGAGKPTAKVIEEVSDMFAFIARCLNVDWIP
As to the kind of experiment: Displacement of fluorophosphonate rhodamine from human cloned prolyl oligopeptidase expressed in Escherichia coli at 5 to 100 uM by SDS-PAGE.
Take `C#CCCCC(=O)N[C@@H](Cc1ccc(C(=O)c2ccccc2)cc1)C(=O)NCCCCCC(=O)N1CCC[C@H]1C(=O)N1CCC[C@H]1C=O`: the result was Active.

For `C#CCCCC(=O)N[C@@H](Cc1ccc(C(=O)c2ccccc2)cc1)C(=O)NCCOCCOCCOCCOCC(=O)N1CCC[C@H]1C(=O)N1CCC[C@H]1C=O`, the result was Active.

As to `C#CCCCC(=O)N[C@@H](Cc1ccc(C(=O)c2ccccc2)cc1)C(=O)N1CCC[C@H]1C(=O)N1CCC[C@H]1C=O`, the outcome was Active.

The record behind these values is ChEMBL document CHEMBL1151936, “Using peptidyl aldehydes in activity-based proteomics” (Bioorg Med Chem Lett, 2009).
